{"source": "patent US20180015111A1", "about": "“METHODS FOR ON DEMAND PRE-EXPOSURE PROPHYLACTIC TREATMENT OF HIV INFECTION” (INSERM (INSTITUT NATIONAL DE LA SANTE ET DE LA RECHERCHE …, priority 2015, published 2018)", "experiment": "Drug levels in plasma by LC-MS/MS as measure of adherence (Example 2)", "type": "in vivo, human", "conditions": "TDF-FTC group, first 113 participants enrolled; limit of detection 0.1 ng/ml tenofovir, 0.4 ng/ml FTC", "method": "Pill count was the first measure of adherence. Participants were asked to return their study-drug bottles at each visit, and a pill count of unused medication was performed. We also measured drug levels in plasma in the first participants who were enrolled. Plasma was tested for the presence of tenofovir and FTC with the use of a validated liquid chromatography-tandem mass spectrometry method with a limit of detection of 0.1 ng per milliliter for tenofovir and 0.4 ng per milliliter for FTC. This plasma assay was able to detect drugs up to 9 days after intake.", "data": [{"smiles": "C[C@H](Cn1cnc2c(N)ncnc21)OCP(=O)(O)O", "note": "[tenofovir, ({[(2R)-1-(6-amino-9H-purin-9-yl)propan-2-yl]oxy}methyl)phosphonic acid]", "values": [{"measurement": "rate of detection in plasma", "value": 86, "unit": "%"}]}, {"smiles": "Nc1nc(=O)n([C@@H]2CS[C@H](CO)O2)cc1F", "note": "[FTC, 4-amino-5-fluoro-1-[(2R,5S)-2-(hydroxymethyl)-1,3-oxathiolan-5-yl]-1,2-dihydropyrimidin-2-one]", "values": [{"measurement": "rate of detection in plasma", "value": 82, "unit": "%"}]}]}
